In brackets after ≈: the same amount, converted by molar mass.
Tests used:
Assay type in all cases: cell-based, Mycobacterium tuberculosis
[1] = tested on: M. tuberculosis H37Rv ATCC 27294; experiment: In vitro growth inhibition assay, BACTEC 460 TB system; set-up: key: +: If ΔGI of test vial is less than that of the control vial the culture was sensitive to the test compound; details: final concentration 6.25 μg/ml
[2] = tested on: M. tuberculosis clinical isolates, sensitive; experiment: microbe, parasite or virus in culture; details: for MIC: Mycobacterium tuberculosis, read-out: MIC (μg/ml) against Clinical isolates Sensitive; for MIC (μg/ml) against Clinical isolates Sensitive: Table I, agar dilution
[3] = tested on: M. tuberculosis 27294; experiment: In vitro agar dilution assay (MIC), reference strain; details: for MIC: Mycobacterium tuberculosis, 27294, Table I, read-out: MIC (μg/ml) against M. tuberculosis-27294; for MIC (μg/ml) against M. tuberculosis-27294: Table I

**Q.** Which results are given for `Cc1c(CN2CCN(c3ccc(F)cc3)CC2)cc(-c2ccc(Cl)cc2)n1-c1ccc(Cl)cc1` [Compound No. 1, 1-{[1,5-bis(4-chlorophenyl)-2-methylpyrrol-3-yl]methyl}-4-(4-fluorophenyl) piperazine]?
**A.** Growth inhibition of M. tuberculosis 27294 [1]: +; MIC [2]: 0.5 to 2 µg/mL (≈ 1.01 to 4.04 µM); MIC [3]: 0.5 µg/mL (≈ 1.01 µM)

**Q.** For `Cc1c(CN2CCN(Cc3ccc4c(c3)OCO4)CC2)cc(-c2ccc(Cl)cc2)n1-c1ccc(Cl)cc1` [Compound No. 8, 5-[(4-{[1,5-bis(4-chlorophenyl)-2-methylpyrrol-3-yl]methyl}piperazinyl)methyl]-2H-benzo[d]1,3-dioxolane], which “Growth inhibition of M. tuberculosis 27294” value [1] is on record?
**A.** The value was “+”.

**Q.** And the “MIC (μg/ml) against Clinical isolates Sensitive” value [2]?
**A.** The value was 0.5 to 1.0 µg/mL.

**Q.** What about the “MIC (μg/ml) against M. tuberculosis-27294” value [3] of the same compound?
**A.** Its value is 1.0 µg/mL (≈ 1.87 µM).

**Q.** Which results are given for `Cc1cc(CN2CCN(c3cccc(C(F)(F)F)c3)CC2)c(-c2ccccc2)n1NC(=O)c1ccncc1` [Compound No. 23, N-(3-{[4-(3-trifluoromethylphenyl)piperazinyl]methyl}-5-methyl-2-phenylpyrrolyl)-4-pyridylcarboxamide]?
**A.** Growth inhibition of M. tuberculosis 27294 [1]: +; MIC (μg/ml) against Clinical isolates Sensitive [2]: 0.25 to 1.0 µg/mL; MIC (μg/ml) against M. tuberculosis-27294 [3]: 0.25 µg/mL (≈ 0.481 µM)

**Q.** How did the “Growth inhibition of M. tuberculosis 27294” value [1] turn out when `CO[C@H]1/C=C/O[C@@]2(C)Oc3c(C)c(O)c4c(O)c(c(/C=N/N5CCN(C)CC5)c(O)c4c3C2=O)NC(=O)/C(C)=C\C=C\[C@H](C)[C@H](O)[C@@H](C)[C@@H](O)[C@@H](C)[C@H](OC(C)=O)[C@@H]1C` [Rifampicin, reference compound] was run?
**A.** Its value is “+”.

**Q.** What about the MIC [2] of the same compound?
**A.** Its MIC is 0.25 µg/mL (≈ 0.304 µM).

**Q.** What about the MIC [3] of the same compound?
**A.** Its MIC is 0.25 µg/mL (≈ 0.304 µM).

**Q.** What does the source list for `Cc1c(CN2CCN(c3ccccn3)CC2)cc(-c2ccc(Cl)cc2)n1-c1ccc(Cl)cc1` [compound 4, 1-{[1,5-bis(4-chlorophenyl)-2-methylpyrrol-3-yl]methyl}-4-(2-pyridyl) piperazine]?
**A.** Growth inhibition of M. tuberculosis 27294 [1]: +; MIC [2]: 0.25 to 1 µg/mL (≈ 0.524 to 2.09 µM); MIC [3]: 0.5 µg/mL (≈ 1.05 µM)

**Q.** Which results are given for `Cc1c(CN2CCN(C(=O)c3ccco3)CC2)cc(-c2ccc(Cl)cc2)n1-c1ccc(Cl)cc1` [compound 7, 4-{[1,5-bis(4-chlorophenyl)-2-methylpyrrol-3-yl]methyl}piperazinyl-2-furyl-ketone]?
**A.** Growth inhibition of M. tuberculosis 27294 [1]: +; MIC (μg/ml) against Clinical isolates Sensitive [2]: 1.0 to 4.0 µg/mL; MIC (μg/ml) against M. tuberculosis-27294 [3]: 4.0 µg/mL (≈ 8.09 µM)

**Q.** What does the source list for `Cc1ccc(Cl)cc1N1CCN(Cc2cc(-c3ccc(Cl)cc3)n(-c3ccc(Cl)cc3)c2C)CC1` [compound 10, 1-{[1,5-bis(4-chlorophenyl)-2-methylpyrrol-3-yl]methyl}-4-(5-chloro-2-methylphenyl) piperazine]?
**A.** Growth inhibition of M. tuberculosis 27294 [1]: +; MIC [2]: 1 to 2 µg/mL (≈ 1.91 to 3.81 µM); MIC [3]: 1 µg/mL (≈ 1.91 µM)

**Q.** How did the “MIC (μg/ml) against M. tuberculosis-27294” value [3] turn out when `Cc1c(CN2CCCC2)cc(-c2ccccc2)n1NC(=O)c1ccncc1` [compound 19, N-[2-methyl-5-phenyl-3-(pyrrolidinylmethyl)pyrrolyl]-4-pyridylcarboxamide] was run?
**A.** Its value is 16.0 µg/mL (≈ 44.4 µM).

**Q.** Which results are given for `Cc1cc(CN2CCN(Cc3ccc4c(c3)OCO4)CC2)c(-c2ccccc2)n1NC(=O)c1ccncc1` [compound 24, N-(3-{[4-(2H-benzo[d]1,3-dioxolan-5-ylmethyl)piperazinyl]methyl}-5-methyl-2-phenylpyrrolyl)-4-pyridylcarboxamide]?
**A.** Growth inhibition of M. tuberculosis 27294 [1]: +; MIC (μg/ml) against M. tuberculosis-27294 [3]: 8.0 µg/mL (≈ 15.7 µM)

**Q.** How did the “MIC (μg/ml) against Clinical isolates Sensitive” value [2] turn out when `Cc1c(CN2CCN(c3ccccn3)CC2)cc(-c2ccccc2)n1NC(=O)c1cnccn1` [compound 28, N-(3-{[4-(2-pyridyl)piperazinyl]methyl}-2-methyl-5-phenylpyrrolyl)pyrazin-2-ylcarboxamide] was run?
**A.** The value was 1.0 to 4.0 µg/mL.

**Q.** What about the “MIC (μg/ml) against M. tuberculosis-27294” value [3] of the same compound?
**A.** Its value is 2.0 µg/mL (≈ 4.41 µM).

**Q.** With `COc1ccccc1N1CCN(Cc2cc(C)n(NC(=O)c3cnccn3)c2-c2ccccc2)CC1` [compound 32, N-(3-{[4-(2-methoxyphenyl)piperazinyl]methyl}-5-methyl-2-phenylpyrrolyl) pyrazin-2-ylcarboxamide] as the compound, how does the “MIC (μg/ml) against Clinical isolates Sensitive” value [2] read?
**A.** Its value is greater than 16.0 µg/mL.

**Q.** And the “MIC (μg/ml) against M. tuberculosis-27294” value [3]?
**A.** The value was greater than 16.0 µg/mL.

**Q.** `Cc1c(CN2CCN(c3ccc(F)cc3)CC2)cc(-c2ccc(Cl)cc2)n1NC(=O)c1cnccn1` [compound 37, N-(5-(4-chlorophenyl)-3-{[4-(4-fluorophenyl)piperazinyl]methyl}-2-methylpyrrolyl)pyrazin-2-ylcarboxamide] was tested. Which “MIC (μg/ml) against Clinical isolates Sensitive” value [2] did it give?
**A.** The value was 8 to 16.0 µg/mL.

**Q.** And the “MIC (μg/ml) against M. tuberculosis-27294” value [3]?
**A.** Its value is 16.0 µg/mL (≈ 31.7 µM).

**Q.** With `COc1ccccc1N1CCN(Cc2cc(-c3ccc(Cl)cc3)n(NC(=O)c3cnccn3)c2C)CC1` [compound 38, N-(5-(4-chlorophenyl)-3-{[4-(2-methoxyphenyl)piperazinyl]methyl}-2-methylpyrrolyl)pyrazin-2-ylcarboxamide] as the compound, how does the “MIC (μg/ml) against Clinical isolates Sensitive” value [2] read?
**A.** Its value is greater than 16.0 µg/mL.

**Q.** What about the “MIC (μg/ml) against M. tuberculosis-27294” value [3] of the same compound?
**A.** The value was greater than 16.0 µg/mL.

**Q.** How did the “MIC (μg/ml) against Clinical isolates Sensitive” value [2] turn out when `Cc1cc(CN2CCN(c3ccc(F)cc3)CC2)c(-c2ccc(Cl)cc2)n1NC(=O)c1cnccn1` [compound 41, N-(2-(4-chlorophenyl)-3-{[4-(4-fluorophenyl)piperazinyl]methyl}-5-methylpyrrolyl)pyrazin-2-ylcarboxamide] was run?
**A.** Its value is greater than 16.0 µg/mL.

**Q.** What about the “MIC (μg/ml) against M. tuberculosis-27294” value [3] of the same compound?
**A.** Its value is greater than 16.0 µg/mL.

**Q.** How did the “MIC (μg/ml) against Clinical isolates Sensitive” value [2] turn out when `Cc1cc(CN2CCN(c3cccc(C(F)(F)F)c3)CC2)c(-c2ccc(Cl)cc2)n1NC(=O)c1cnccn1` [compound 43, N-(2-(4-chlorophenyl)-3-{[4-(3-trifluoromethylphenyl)piperazinyl]methyl}-5-methylpyrrolyl)pyrazin-2-ylcarboxamide] was run?
**A.** Its value is greater than 16.0 µg/mL.

**Q.** What about the “MIC (μg/ml) against M. tuberculosis-27294” value [3] of the same compound?
**A.** Its value is greater than 16.0 µg/mL.

**Q.** What does the source list for `Cc1c(CN2CCN(c3ccc(F)cc3)CC2)cc(-c2ccccc2)n1-c1ccc(F)cc1F` [compound 51, 1-{[1-(2,4-difluorophenyl)-2-methyl-5-phenylpyrrol-3-yl]methyl}-4-(4-fluorophenyl)piperazine]?
**A.** MIC [2]: > 16 µg/mL; MIC [3]: > 16 µg/mL

**Q.** Which MIC [2] does the source give for `Cc1c(CN2CCN(c3cccc(C(F)(F)F)c3)CC2)cc(-c2ccccc2)n1-c1ccc(F)cc1F` [compound 53, 1-{[1-(2,4-difluorophenyl)-2-methyl-5-phenylpyrrol-3-yl]methyl}-4-(3-trifluoromethylphenyl)piperazine] here?
**A.** The MIC was greater than 16 µg/mL.

**Q.** And the MIC [3]?
**A.** Its MIC is greater than 16 µg/mL.

**Q.** How did the MIC [2] turn out when `Cc1cc(CN2CCN(c3ccc(F)cc3)CC2)c(-c2ccccc2)n1-c1ccc(F)cc1F` [compound 55, 1-{[1-(2,4-difluorophenyl)-5-methyl-2-phenylpyrrol-3-yl]methyl}-4-(4-fluorophenyl) piperazine] was run?
**A.** The MIC was greater than 16 µg/mL.

**Q.** What about the MIC [3] of the same compound?
**A.** Its MIC is greater than 16 µg/mL.

**Q.** With `COc1ccccc1N1CCN(Cc2cc(-c3ccc(Cl)cc3)n(-c3cccc4ccccc34)c2C)CC1` [compound 59, 1-{[5-(4-chlorophenyl)-2-methyl-1-naphthylpyrrol-3-yl]methyl}-4-(2-methoxyphenyl)piperazine] as the compound, how does the “MIC (μg/ml) against Clinical isolates Sensitive” value [2] read?
**A.** Its value is greater than 16.0 µg/mL.

**Q.** What about the “MIC (μg/ml) against M. tuberculosis-27294” value [3] of the same compound?
**A.** Its value is greater than 16.0 µg/mL.

**Q.** What does the source list for `Cc1cc(CN2CCN(c3cccc(C(F)(F)F)c3)CC2)c(-c2ccc(Cl)cc2)n1-c1cccc2ccccc12` [compound 64, 1-{[2-(4-chlorophenyl)-5-methyl-1-naphthylpyrrol-3-yl]methyl}-4-(3-trifluoromethylphenyl)piperazine]?
**A.** MIC (μg/ml) against Clinical isolates Sensitive [2]: >16.0 µg/mL; MIC (μg/ml) against M. tuberculosis-27294 [3]: >16.0 µg/mL

**Q.** What does the source list for `CCC(CO)n1c(C)c(CN2CCSCC2)c(CO)c1-c1ccccc1` (stereo not drawn) [compound 90, 2-[3-(hydroxymethyl)-5-methyl-2-phenyl-4-(1,4-thiazaperhydroin-4-ylmethyl)-pyrrolyl]butan-1-ol]?
**A.** MIC (μg/ml) against Clinical isolates Sensitive [2]: >16.0 µg/mL; MIC (μg/ml) against M. tuberculosis-27294 [3]: >16.0 µg/mL
